Results reported in patent publication US8242118B2, “Arylsulfonamide derivatives for use as CCR3 antagonists in the treatment of inflammatory and immunological disorders” (Axikin Pharmaceuticals Inc., priority 2001, dated 2012).

Assays:
[1] = target: T1, Human CCR3 (Homo sapiens, UniProt P51677); assay: Calcium mobilization assay, eotaxin-stimulated; format: cell-based; details: human CCR3-transformed K562 cells, 10 nM eotaxin; compounds of about 40 to 90% purity; read-out: Activity grade Ca2+ (IC50 class)
T1 construct: The cloned CCR3 cDNA was constructed with pcDNA3 vector and transfected into a IC562 cell line; expressed in transfected cells
T1 sequence (P51677 1-355): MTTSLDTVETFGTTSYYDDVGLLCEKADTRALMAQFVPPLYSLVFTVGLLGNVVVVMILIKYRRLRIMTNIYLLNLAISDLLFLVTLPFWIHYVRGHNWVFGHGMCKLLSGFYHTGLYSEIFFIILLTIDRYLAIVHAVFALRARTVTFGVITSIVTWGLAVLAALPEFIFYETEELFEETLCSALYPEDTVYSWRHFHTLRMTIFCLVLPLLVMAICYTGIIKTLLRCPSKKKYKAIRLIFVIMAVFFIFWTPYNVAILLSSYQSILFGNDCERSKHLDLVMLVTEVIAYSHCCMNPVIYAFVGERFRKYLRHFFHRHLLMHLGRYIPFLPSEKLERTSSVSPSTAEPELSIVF
Experimental: • Human CCR3-transformed K562 cells were used. The cloned CCR3 cDNA was constructed with pcDNA3 vector and transfected into a IC562 cell line. The human CCR3-transformed K562 cells were maintained in RPMI-1640 (Cat.#22400-089, Life Technologies) supplemented with 10% FCS (Cat.#A-1115-L, Hyclone), 55 μM 2-mercaptoethanol (Cat.#21985-023, Life Technologies), 1 mM sodium pyruvate (Cat.#11360-070, Life Technologies), 100 units/ml of penicillin G and 100 μg/ml of streptomycin (Cat.#15140-122, Life Technologies), and 0.4 mg/ml of Geneticin (Cat.#10131-035, Life Technologies)(hereinafter called “culture medium”). Before the receptor binding assay, cells were pretreated with 5 mM sodium butyrate (Cat.#193-01522, Wako)-containing the culture medium (2×10^5 cells/ml) for 20-24 hours to increase the expression of CCR3. (2) Receptor Binding Assay (RBA) • Butyrate-pretreated cells, suspended in binding buffer (25 mM HEPES pH 7.6, 1 mM CaCl2, 5 mM MgCl2, 0.5% BSA, 0.1% NaN3) at a cell density of 2×10^6 cells/ml, were added into 60 μl/well in the 96-well round bottom polypropylene plate (Cat.#3365, Costar). Compounds, diluted with the binding buffer (4-times higher concentration of the final concentration), were added into 30 μl/well in the polypropylene plate. [^125I]-labeled human eotaxin (Cat.#IM290, Amersham Pharmacia Biotech), diluted with the binding buffer at the concentration of 0.4 nM (final concentration; 0.1 nM), was added into 30 μl/well in the polypropylene plate. Total 120 μl/well of binding reaction mixture (60 μl/well of cell suspension, 30 μl/well of compound solution, and 30 μl/well of [^125I]-labeled eotaxin) were incubated in the polypropylene plate for 1 hour at room temperature after the incubation, 100 μl/well of the reaction mixture was transferred to a filtration plate (Cat.#MAFB-N0B, Millipore), and washed with the washing buffer (25 mM HEPES pH 7.6, 1 mM CaCl2, 5 mM MgCl2, 0.5% BSA, 0.1% NaN3, 0.5 M NaCl) twice. The 96-well filtration plate was pretreated with 100 μl/well of 0.5% polyethylenimine (Cat.#P-3143, Sigma) for 2-4 hours at room temperature and washed with the washing buffer twice before use. The non-specific binding was determined by parallel incubation in the presence of 500 nM of non-labeled eotaxin (Cat.#23209, Genzyme Techne). The radioactivities remained on the filter were measured by liquid scintillation counter (TopCount™, Packard) after an addition of 45 μl/well of scintillant (Microscint20, Cat.#6013621, Packard). The inhibition percent at each concentration of compound was calculated, and IC50 values were determined from the inhibition curve. [Determination of IC50 Values of Compounds in Calcium Mobilization Assay] (IC50 Ca2+) (1) Cell • Human CCR3-transformed K562 cells were used. The human CCR3-transformed K562 cells were maintained in RPMI-1640 supplemented with 10% FCS, 55 μM 2-mercaptoethanol (Cat.#21985-023, Life Technologies), 1 mM sodium pyruvate, 100 units/ml of penicillin G and 100 μg/ml of streptomycin and 0.4 mg/ml of Geneticin. Before the calcium mobilization assay, cells were pretreated with 5 mM sodium butyrate-containing the culture medium (2×10^5 cells/ml) for 20-24 hours to increase the expression of CCR3. (2) Calcium Mobilization Assay • Butyrate-pretreated cells were loaded with Fluo-3AM (Cat.#F-1242, Molecular Probes) in loading buffer (Hanks' solution Cat.#05906 Nissui, 20 mM HEPES pH 7.6, 0.1% BSA, 1 mM probenecid Cat.#P-8761 Sigma, 1 μM Fluo-3AM, 0.01% pluronic F-127 Cat.#P-6866 Molecular Probes) at a cell density of 1×10^7 cells/ml. Then, cells were washed with calcium assay buffer (Hanks' solution Cat.#05906 Nissui, 20 mM HEPES pH 7.6, 0.1% BSA, 1 mM Probenecid Cat.#P-8761 Sigma). The cell suspension (3.3×10^6 cells/ml) was added into 60 μl/well in the 96-well clear bottom black plate (Cat.#3904, Costar). Compounds, diluted (5-times concentration of the final concentration) with the calcium assay buffer, were added into 20 μl/well in the plate 10 minutes before assay. […]

Row | Structure (SMILES) | melting point [°C] | IC50 [1] [nM]
1 | N#Cc1ccc(Oc2cc(Cl)cc(Cl)c2)c(S(=O)(=O)N2CCC[C@H]2CN2CCCC2)c1 [Example 13-3] | 144 to 145 | < 1000
2 | Cl.O=[N+]([O-])c1ccc(Oc2c(F)c(F)c(F)c(F)c2F)c(S(=O)(=O)N2CCNCC2)c1 [Example 1-73] | 297 | < 1000
3 | Cl.N[C@@H]1CCN(S(=O)(=O)c2cc([N+](=O)[O-])ccc2Oc2cc(Cl)cc(Cl)c2)C1 [Example 1-99] | 247 to 250 | < 1000
4 | Cl.O=[N+]([O-])c1ccc(Sc2ccc3ccccc3c2)c(S(=O)(=O)N2CCNCC2)c1 [Example 2-21] | 273 | 1000 to 10000
5 | COc1ccc(S(=O)(=O)N2CCNCC2)c(Oc2cc(C)cc(C)c2)c1.Cl [Example 1-49] | 125 | < 1000
6 | Cc1ccc(Oc2ccc([N+](=O)[O-])cc2S(=O)(=O)N2CCNCC2)cn1.Cl [Example 1-70] | 237 | < 1000
7 | Cc1cc(Oc2ccc([N+](=O)[O-])cc2S(=O)(=O)N2CCNCC2)cc(C)c1C.Cl [Example 1-69] | 248 | < 1000
